Experimental data reported in patent US4443436A, “C-20-Modified macrolide derivatives of the macrolide antibiotics tylosin, desmycosin, macrocin, and lactenocin” (Eli Lilly and Company, priority 1982, dated 1984).
Values after ≈ are worked out from the molar mass of the structure shown. Values joined by “and” are separate entries in the source; they are usually repeats but may differ in a detail not shown here. Identical values can stand only once. Like-named read-outs stand apart in the source and are kept apart here.

Columns and labels:
Mycoplasma hyorhinis = assay: MIC, broth-dilution microtiter test, Mycoplasma hyorhinis; type: cell-based
Source text: (§1) The MIC's in Table X were obtained using conventional broth-dilution microtiter tests.

[1] = system: Pasteurella multocida 60A; assay: MIC, broth-dilution microtiter test, Pasteurella multocida 60A; type: cell-based; details: Pasteurella multocida 60A; avian isolate; broth-dilution microtiter; read-out: MIC
Source text: as §1

Pasteurella multocida [2] = assay: Subcutaneous treatment of Pasteurella multocida-infected chicks; type: in vivo, one-day-old chicks; details: 30 mg/kg × 2, 1 and 4 hours post-challenge
Experimental: (§2) Many of the C-20 modified derivatives of this invention have also shown in vivo antibacterial activity against infections induced by gram-negative bacteria. Tables XII and XIII summarize the results of tests in which illustrative compounds were evaluated against Pasteurella infection in one-day-old chicks. The compounds were administered parenterally or orally after challenge of the chicks with Pasteurella multocida (0.1 ml of a 10^-4 dilution of a twenty-hour tryptose broth culture of an avian P. multocida given subcutaneously). In these tests, unless indicated otherwise, all non-medicated infected chicks died within 24 hours of Pasteurella challenge. In the tests summarized in Table XII the compounds were administered by subcutaneous injection at a dosage of 30 mg/kg, 1 and 4 hours post-challenge of the chicks with P. multocida. In the test summarized in Table XIII the compounds were administered by gavage at 1 and 5 hours post-challenge of the chicks with P. multocida.

Mycoplasma gallisepticum [3] = assay: MIC, broth-dilution microtiter test, Mycoplasma gallisepticum; type: cell-based; details: Mycoplasma gallisepticum, broth-dilution microtiter
Source text: as §1

[4] = system: Pasteurella hemolytica 22C; assay: MIC, broth-dilution microtiter test, Pasteurella hemolytica 22C; type: cell-based; details: Pasteurella hemolytica 22C, broth-dilution microtiter
Source text: as §1

[5] = system: Staphylococcus epidermidis EPI1; assay: MIC, standard agar-dilution assay, Staphylococcus epidermidis EPI1; type: cell-based
Mycoplasma gallisepticum [6] = assay: Antimycoplasmal activity in chicks infected with Mycoplasma gallisepticum; type: in vivo, two- to three-day-old chicks; details: gavage five times, equivalent to 0.5 g/gal; for Number with Antibodies/Number Tested: antibodies to M. gallisepticum; for Number with Antibodies/Number Tested / Number with Air-Sac Lesions/Number Treated: 21 days post-infection
Experimental: In these tests infections were induced in chicks by injecting 0.2 ml of a broth culture of M. gallisepticum into the abdominal air sac of two- to three-day-old chicks. The compounds were administered by gavage five times at a dose equivalent to 0.5 g/gal (on the day of challenge once prior to and once following the challenge, two times on the next day and once on the third day). Twenty-one days post-infection, the chicks were weighed, a blood sample was taken, and the chicks were sacrificed. The presence or absence of air-sac lesions was recorded.

[7] = system: Staphylococcus aureus S13E; assay: MIC, standard agar-dilution assay, Staphylococcus aureus S13E; type: cell-based
Streptococcus bovis 80 = assay: MIC, broth-dilution microtiter test, Streptococcus bovis 80; type: cell-based; details: Streptococcus bovis 80, broth-dilution microtiter
Source text: as §1

Mycoplasma synoviae = assay: MIC, broth-dilution microtiter test, Mycoplasma synoviae; type: cell-based; details: Mycoplasmopsis synoviae; Mycoplasma synoviae; broth-dilution microtiter; read-out: MIC
Source text: as §1

Streptococcus Group 9960 = assay: MIC, standard agar-dilution assay, Streptococcus Group 9960; type: cell-based
[8] = system: Pasteurella multocida 17E; assay: MIC, broth-dilution microtiter test, Pasteurella multocida 17E; type: cell-based; details: Pasteurella multocida 17E; bovine isolate; broth-dilution microtiter; read-out: MIC
Source text: as §1

[9] = system: Streptococcus Group D X66; assay: MIC, standard agar-dilution assay, Streptococcus Group D X66; type: cell-based
Mycoplasma hyopneumoniae = assay: MIC, broth-dilution microtiter test, Mycoplasma hyopneumoniae; type: cell-based; details: Mesomycoplasma hyopneumoniae; Mycoplasma hyopneumoniae; broth-dilution microtiter; read-out: MIC
Source text: as §1

[10] = system: Streptococcus pneumoniae Park I; assay: microbe, parasite or virus in culture; type: cell-based
[11] = system: Staphylococcus aureus V41; assay: MIC, standard agar-dilution assay, Staphylococcus aureus V41; type: cell-based
[12] = system: Staphylococcus aureus X1.1; assay: MIC, standard agar-dilution assay, Staphylococcus aureus X1.1; type: cell-based
Staphylococcus aureus = assay: MIC, broth-dilution microtiter test, Staphylococcus aureus; type: cell-based; details: broth-dilution microtiter
Source text: as §1

Pasteurella multocida [13] = assay: Oral (gavage) treatment of Pasteurella multocida-infected chicks; type: in vivo, one-day-old chicks
Experimental: as §2

[14] = system: Streptococcus pyogenes C203; assay: MIC, standard agar-dilution assay, Streptococcus pyogenes C203; type: cell-based
[15] = system: Staphylococcus aureus X400; assay: MIC, standard agar-dilution assay, Staphylococcus aureus X400; type: cell-based
[16] = system: Streptococcus pyogenes C203; assay: In vivo protection of mice experimentally infected with S. pyogenes C203; details: mice, doses given 1 and 4 hours post-infection; for ED50: Streptococcus pyogenes
Experimental: The C-20 modified derivatives of this invention have shown in vivo antimicrobial activity against experimentally-induced infections in laboratory animals. When two doses of test compound were administered to mice experimentally infected with S. pyogenes C203, the activity observed was measured as an ED50 value [effective dose in mg/kg to protect 50% of the test animals: see Warren Wick, et al., J. Bacteriol. 81, 233-235 (1961)].

[17] = system: Staphylococcus epidermidis EPI2; assay: MIC, standard agar-dilution assay, Staphylococcus epidermidis EPI2; type: cell-based; details: Staphylococcus epidermidis EPI2; agar dilution; read-out: MIC
[18] = system: Haemophilus influenzae Holt; assay: MIC, standard agar-dilution assay, Haemophilus influenzae Holt; type: cell-based
[19] = system: Haemophilus influenzae R252; assay: MIC, standard agar-dilution assay, Haemophilus influenzae R252; type: cell-based
[20] = Mycoplasmoides gallisepticum, read-out: MIC
[21] = Streptococcus equinus, read-out: MIC
[22] = C203, sc, subcutaneous, read-out: ED50, Subcutaneous
[23] = C203, oral, read-out: ED50, Oral

SMILES	MIC (Mycoplasma hyorhinis; Mycoplasma) [µg/mL]	MIC [1] [µg/mL]	Number of Deaths/Number Treated (Pasteurella multocida [2])	MIC (Mycoplasma gallisepticum [3]; [20]) [µg/mL]	MIC ([4]; read-out: MIC) [µg/mL]	Number with Antibodies/Number Tested (Mycoplasma gallisepticum [6])	Mortality (Mycoplasma gallisepticum [6])	Number with Air-Sac Lesions/Number Treated (Mycoplasma gallisepticum [6])	MIC ([7]; Staphylococcus aureus, S13E) [µg/mL]	MIC (Streptococcus bovis 80; [21]) [µg/mL]	MIC (Mycoplasma synoviae) [µg/mL]	MIC [8] [µg/mL]	MIC (Mycoplasma hyopneumoniae) [µg/mL]	MIC ([11]; Staphylococcus aureus, V41) [µg/mL]	MIC ([12]; Staphylococcus aureus, X1.1) [µg/mL]	MIC (Staphylococcus aureus; read-out: MIC) [µg/mL]	MIC ([15]; Staphylococcus aureus, X400) [µg/mL]	ED50 [16, 22] [mg/kg]	ED50 [16, 23] [mg/kg]	other results
CCC1OC(=O)CC(O)C(C)C(OC2OC(C)C(O)C(N(C)C)C2O)C(CCSc2nnnn2C)CC(C)C(=O)C=CC(C)=CC1COC1OC(C)C(O)C(OC)C1OC (stereo not drawn) [Compound 24, 20-DH-DO-20-[(1-N-Methyltetrazol-5-yl)thio]desmycosin]	50 (≈ 57.3 µM)	12.5 (≈ 14.3 µM)	2/10 and 0/10	1.56 (≈ 1.79 µM)	12.5 (≈ 14.3 µM)	10/10	0/10	6/10	0.5 (≈ 0.573 µM)	12.5 (≈ 14.3 µM)	0.78 (≈ 0.894 µM)	12.5 (≈ 14.3 µM)	12.5 (≈ 14.3 µM)	0.5 (≈ 0.573 µM)	0.5 (≈ 0.573 µM)	0.78 (≈ 0.894 µM)	1 (≈ 1.15 µM)	2.4	50	MIC ([5]; Staphylococcus epidermidis EPI1, agar dilution, read-out: MIC): 0.25 µg/mL (≈ 0.287 µM); MIC (Streptococcus Group 9960; GROUP9960, Streptococcus Group 9960, agar dilution, read-out: MIC): 32 µg/mL (≈ 36.7 µM); MIC ([9]; Streptococcus Group D X66, agar dilution, read-out: MIC): 16 µg/mL (≈ 18.3 µM); MIC ([10]; Streptococcus pneumoniae): 2 µg/mL (≈ 2.29 µM); Number of Deaths/Number tested (Pasteurella multocida [13]; 1.0 g/gal equivalent): 2/9; Number of Deaths/Number tested (Pasteurella multocida [13]; 2.0 g/gal equivalent): 1/9; MIC ([14]; Streptococcus pyogenes C203, agar dilution, read-out: MIC): 0.25 µg/mL (≈ 0.287 µM)
CCC1OC(=O)CC(O)C(C)C(OC2OC(C)C(O)C(N(C)C)C2O)C(CCOC(=O)COc2ccccc2)CC(C)C(=O)C=CC(C)=CC1COC1OC(C)C(O)C(OC)C1OC (stereo not drawn) [Compound 26, 20-DH-20-O-(Phenoxyacetyl)desmycosin]	50 (≈ 55.1 µM)	6.25 (≈ 6.88 µM)	8/10	< 0.05	12.5 (≈ 13.8 µM)	7/9	1/10	5/10	0.25 (≈ 0.275 µM)	1.56 (≈ 1.72 µM)	1.56 (≈ 1.72 µM)	6.25 (≈ 6.88 µM)	0.78 (≈ 0.859 µM)	0.25 (≈ 0.275 µM)	0.25 (≈ 0.275 µM)	0.39 (≈ 0.429 µM)	0.5 (≈ 0.551 µM)	2.4	> 25	MIC [17]: 0.12 µg/mL (≈ 0.132 µM); MIC ([5]; Staphylococcus epidermidis, EPI1): 0.25 µg/mL (≈ 0.275 µM); MIC (Streptococcus Group 9960; GROUP9960): 0.5 µg/mL (≈ 0.551 µM); MIC [9]: 0.5 µg/mL (≈ 0.551 µM); MIC ([18]; Haemophilus influenzae): 8 µg/mL (≈ 8.81 µM); MIC ([10]; Streptococcus pneumoniae Park I, agar dilution, read-out: MIC): 0.12 µg/mL (≈ 0.132 µM); MIC ([19]; Haemophilus influenzae, R252): 8 µg/mL (≈ 8.81 µM); MIC ([14]; Streptococcus pyogenes, C203): 0.12 µg/mL (≈ 0.132 µM)
CCC1OC(=O)CC(O)C(C)C(OC2OC(C)C(O)C(N(C)C)C2O)C(CCN=[N+]=[N-])CC(C)C(=O)C=CC(C)=CC1COC1OC(C)C(O)C(OC)C1OC (stereo not drawn) [Compound 44, 20-DH-DO-20-Azidodesmycosin]			9/10			9/10	0/10	7/10												MIC (Mycoplasma hyorhinis; Mycoplasma hyorhinis, broth-dilution microtiter): 50 µg/mL (≈ 62.6 µM); MIC (Mycoplasma gallisepticum [3]): 0.39 µg/mL (≈ 0.488 µM); MIC [4]: 12.5 µg/mL (≈ 15.6 µM); MIC ([5]; Staphylococcus epidermidis EPI1, agar dilution): 0.12 µg/mL (≈ 0.15 µM); MIC ([7]; Staphylococcus aureus S13E, agar dilution): 0.12 µg/mL (≈ 0.15 µM); MIC (Streptococcus bovis 80): 6.25 µg/mL (≈ 7.82 µM); MIC (Streptococcus Group 9960; Streptococcus Group 9960, agar dilution): 8 µg/mL (≈ 10 µM); MIC ([9]; Streptococcus Group D X66, agar dilution): 4 µg/mL (≈ 5.01 µM); MIC ([18]; Haemophilus influenzae Holt, ampicillin-sensitive strain, agar dilution): 16 µg/mL (≈ 20 µM); MIC ([10]; Streptococcus pneumoniae Park I, agar dilution): 2 µg/mL (≈ 2.5 µM); MIC ([11]; Staphylococcus aureus V41, penicillin-resistant strain, agar dilution): 0.12 µg/mL (≈ 0.15 µM); MIC ([12]; Staphylococcus aureus X1.1, agar dilution): 0.12 µg/mL (≈ 0.15 µM); MIC (Staphylococcus aureus): 0.39 µg/mL (≈ 0.488 µM); MIC ([19]; Haemophilus influenzae R252, ampicillin-resistant strain, agar dilution): 4 µg/mL (≈ 5.01 µM); MIC ([14]; Streptococcus pyogenes C203, agar dilution): 0.25 µg/mL (≈ 0.313 µM); MIC ([15]; Staphylococcus aureus X400, methicillin-resistant strain, agar dilution): 0.25 µg/mL (≈ 0.313 µM); ED50, Oral ([16]; oral): 13 mg/kg × 2; ED50, Subcutaneous ([16]; subcutaneous): 3.8 mg/kg × 2
